# Test results reported in patent US7691563B2, “Method for alleviating pain using sphingosine-1-phosphate and related compounds, and assays for identifying such compounds” (Sanofi-Aventis Pharma GmbH, priority 2003, dated 2010).
# “And” between values parts separate entries of the source, which are not always exact repeats. Identical values can stand only once.
# Experiments:
# adenylyl cyclase (AC) [1] = experiment: AC activity of HeLa cell lysates after treatment of cells; assay type: cell-based, human; conditions: for effect on serum-induced inhibition of Gαs- and forskolin-stimulated AC activity: HeLa cells transfected with ODN (3 μM), 30 minutes 10% FBS; for effect of pre-treatment on S1P inhibition of Gαs-stimulated AC activity: HeLa cells, 0.5 μM S1P, PTX 1 μg/μl 24 hours, inhibitors 10 μM 20 minutes, ODN 3 μM, 60 minutes S1P
# Protocol: Panel B: Adenylyl cyclase activity of HeLa cell lysates was measured in the absence and presence of serum as described in Materials and Methods section. The Gsα* (80 nM; grey bars)- and forskolin (100 μM; black bars)-stimulated specific activities of ACV were 124±10 pmol/mg/min and 464±89 pmol/min/mg, respectively. The basal activity was 11.75±2 pmol/mg/min. The mean ±SE of at least 2 experiments each done in triplicates is shown. Student T test: *p<0.001.
# Panel E: Serum-starved HeLa cells were treated with sense, antisense, and 3M-as ODNs as described above. After 24 hours the cells were incubated for 30 minutes with 10% FBS. Cells were harvested and AC activity in presence of Gαs* (80 nM; grey bars) and forskolin (100 μM; black bars) was determined as described above. Data from at least 3 experiments measured in triplicates are presented as the mean±SEM. Student T test: *p<0.01, **p<0.05.
# Panel B: Serum-starved HeLa cells were treated for varying times with 0.5 μM S1P. Cells were harvested and AC activity in presence of 80 nM Gαs* was determined as described in Material and Methods. Data from at least 4 experiments measured in triplicates are presented as the mean ±SE.
# Panel C: Serum-starved HeLa cells were treated with sense, antisense, and 3M-as ODNs as described in the Materials and Methods section. After 24 hours the cells were incubated for the indicated times with 0.5 μM S1P. Cells were harvested and AC activity in presence of Gαs* (80 nM) was determined as described above. Data are presented as the mean ±SEM of three determinations.
# Panel A: Serum-starved HeLa cells were treated with 0.5 μM S1P for 3 (grey bars) or 60 (black bars) minutes. Prior incubation with S1P the cells were incubated for 24 hours with […] pertussis toxin (PTX). AC activity in was determined presence of 80 nM Gαs*. Data from at least 2 experiments measured in triplicates are presented as the mean ±SE.
# Panel B: Serum-starved HeLa cells were treated with 0.5 μM S1P. Prior incubation with S1P the cells were incubated for 20 minutes with 10 μM U73122, R031-8220, BAPTA-AM or U0126. AC activity in was determined presence of 80 nM Gαs*. Data from at least 2 experiments measured in triplicates are presented as the mean ±SE.
# Spinal cords were lysed in 25 mM Hepes, pH 7.4, 1 mM EGTA and cell membranes were prepared as described by Kassis and Fishman. Aliquots were stored at −80° C. until use. AC activity assays were performed in a volume of 100 μl for 15 min at room temperature in the presence of 100 μM MgCl2 as previously described (Patel et al., 2002). Gsα* (80 nM) or forskolin (100 μM) were used to stimulate AC enzyme activity in membranes (10 μg protein).
# The sequences of the oligodeoxynucleotides (ODNs) were chosen as published previously (Scholich et al., 2001). Sense: 5′-CTGTTCATGCCGGTT-3′, antisense: 5′-AACCGGCATGAACAG-3′, and antisense ODN harboring three mutations (3M-as; mutations are underlined): 5′-AATCCGTATGAACAC-3′. HeLa-cells were plated on 35 mm dishes (300,000 cells) and grown in DMEM medium (Gibco, Karlsruhe, Germany) containing 10% FBS and 1% penicillin/streptoMycin for 24 hours. The ODNs (3 μM each) were introduced into the cells by transfections using Tfx20 (Promega, Madison, Wis.) in 1 ml serum-free medium according to the instructions of the manufacturer. Two hours later, 1 ml DMEM (Gibco, Karlsruhe, Germany) containing 10% FBS was added. The cells were then incubated for 6 hours. Then the medium was exchanged against serum-free DMEM (Gibco, Karlsruhe, Germany), followed by an incubation for 16 hours in serum-free DMEM (Gibco, Karlsruhe, Germany) before being treated with 10% serum or […] S1P. The cells were then used for Western blots by adding boiling 1× Laemmli buffer or they were havested for AC activity assays as described above.
# PAM = PAM translocation to the plasma membrane in HeLa cells (immunofluorescence); assay type: cell-based, human; conditions: HeLa cells, 0.5 μM S1P; PTX 1 μg/μl 24 hours; GF109203X 1 μM, others 10 μM, 20 minutes
# Protocol: Panel B: HeLa cells were treated with 10% fetal bovine serum for different times and stained with anti-PAM antibodies to monitor the subcellular localization.
# Panel B: HeLa cells were treated with 0.5 μM S1P for 30 minutes and stained with anti-PAM antibodies to monitor the subcellular localization.
# Panel C: Time dependence of PAM translocation in HeLa cells. Serum-starved HeLa cells were treated with 0.5 μM S1P for different times and stained with anti-PAM antibodies to monitor the subcellular localization.
# Panel D: HeLa cells were treated with 0.5 μM S1P for 20 minutes and stained with anti-PAM antibodies to monitor the subcellular localization. Prior S1P-treatment were the cells incubated for 24 hours with […] pertussis toxin (PTX), for 20 minutes with, 1 μM GF109203X, 10 μM U0126, BAPTA-AM, U73122 or Ro31-223.
# To monitor distribution of PAM in HeLa cells, cells were grown on glass coverslips in DMEM with 10% FBS and 1% penicillin/streptoMycin (Gibco, Karlsruhe, Germany). To visualize translocation of PAM HeLa, cells were serum starved overnight and subsequently treated with 10% serum for 2 hours. Wherever indicated, cells were preincubated for 30 minutes in the presence of different concentrations of inhibitors. The cells were fixed in 4% paraformaldehyde (Sigma, Taufkirchen, Germany) in PBS for 10 minutes and then permeablized in 0.1% Triton X-100 for another 5 minutes. The coverslips were blocked for 1 hour in 3% BSA in PBS and then incubated for 1 hour with anti-PAM antibody (1:50 dilution). This was followed by incubation with FITC-labeled goat anti-rabbit antibody in PBS containing 3% BSA. The cells were then washed with PBS and mounted. For the analysis confocal (BioRad, Hercules, Calif.) and regular flourescence microscopes (Nikon, Duesseldorf, Germany) were used.
# adenylyl cyclase (AC) [2] = experiment: AC activity assay, purified PAM added to spinal cord or DRG lysates; assay type: biochemical, rat; conditions: 30 nM PAM
# Protocol: Panel B: Lysates of spinal cords or DRG (10 μg) were assayed for AC activity in the presence of 80 nM Gαs as described in Material and Methods. The mean ±SEM of at least 3 determinations done in triplicates is shown.
# PAM purification was performed with some modifications as published previously (Scholich et al. 2001). Shortly, HeLa cells were grown in DMEM medium with 10% fetal bovine serum and 1% penicillin/streptoMycin. Confluent cells of forty 150 mm dishes were harvested with 1×PBS, 1 mM EDTA and pelleted for 5 minutes at 400×g. The cells were resuspended in TED buffer (50 mM Tris-HCl, pH 8.0, 1 mM EDTA, 1 mM DTT) containing 125 mM NaCl, 20 μg/ml of aprotinin, 20 μg/ml leupeptin, 1 mM benzamidine, 5 μg/ml soybean trypsin inhibitor and lysed by 2×5 seconds of sonication. The homogenate was centrifuged at 27000×g for 30 min at 4° C., and the supernatant was loaded on a Q-Sepharose XK16 column (Amersham, Pharmacia, Piscataway, N.J.) and eluted with a gradient of 150-350 mM NaCl in TED according to instructions of the manufacturer. The fractions were analyzed by Western blotting according to standard procedures; positive fractions were pooled and the NaCl concentration adjusted to 1 M. The protein was then loaded on a Phenyl-Sepharose XK16 column (Amersham, Pharmacia, Piscataway, N.J.) and washed with 300 mM NaCl in TED according to instructions of the manufacturer. The flow through and wash fractions contained PAM. They were pooled and the buffer exchanged for the aforementioned TED buffer containing 100 mM NaCl using Centricon 50 (Amicon, Beverly, Mass.) according to the manufacturer's instructions. The protein was then loaded on a MonoS 5/5 FPLC column (Amersham, Pharmacia, Piscataway, N.J.) and washed with the loading buffer (100 mM NaCl in TED) according to instructions of the manufacturer. The flow through was collected and applied to a Mono Q 5/5 FPLC column (Amersham, Pharmacia, Piscataway, N.J.). The protein was eluted with a gradient from 150-400 mM NaCl in TED. […]
Molecule,effect of pre-treatment on S1P inhibition of Gαs-stimulated AC activity (adenylyl cyclase (AC) [1]),effect of pre-treatment on S1P-induced PAM translocation (PAM),further results
"3M-as: antisense ODN harboring three mutations, HeLa cells, 5′-AATCCGTATGAACAC-3′ (DNA, backbone and methylation of C not given here)",–,–,effect on serum-induced inhibition of Gαs- and forskolin-stimulated AC activity (adenylyl cyclase (AC) [1]): no influence
Cn1cc(C2=C(c3cn(CCCSC(=N)N)c4ccccc34)C(=O)NC2=O)c2ccccc21 [RO 31-8220],eliminated,–,–
Pertussis toxin [reference compound],eliminated,eliminated,–
"sense ODN: sense ODN used in HeLa cells, 5′-CTGTTCATGCCGGTT-3′ (DNA, backbone and methylation of C not given here)",–,–,effect on serum-induced inhibition of Gαs- and forskolin-stimulated AC activity (adenylyl cyclase (AC) [1]): no influence
"CN(C)CCCn1cc(C2=C(c3c[nH]c4ccccc34)C(=O)NC2=O)c2ccccc21 [GF109203X, reference compound]",–,eliminated,–
"CC(=O)OCOC(=O)CN(CC(=O)OCOC(C)=O)c1ccccc1OCCOc1ccccc1N(CC(=O)OCOC(C)=O)CC(=O)OCOC(C)=O [BAPTA-AM, reference compound]",–,did not interfere,–
"PAM: Protein Associated with Myc, giant protein of 510 kDa, full length purified from HeLa cells",–,–,decrease of Gαs-stimulated AC activity (adenylyl cyclase (AC) [2]; DRG lysates): 32%; inhibition of Gαs-stimulated AC activity (adenylyl cyclase (AC) [2]; spinal cord lysates of animals treated for 1 hour with formalin): 25%; decrease of Gαs-stimulated AC activity (adenylyl cyclase (AC) [2]; spinal cord lysates of control animals): 50% and 49%
C=C[C@@]1(C)CC(=O)[C@]2(O)[C@@]3(C)[C@@H](O)CCC(C)(C)[C@@H]3[C@H](O)[C@H](OC(C)=O)[C@@]2(C)O1 [forskolin],–,–,"forskolin-stimulated specific activity of AC (adenylyl cyclase (AC) [1]; HeLa cell lysates, 100 μM forskolin): 464 ± 89 pmol/min/mg"
"COc1ccc2c(c1)CC[C@@H]1[C@@H]2CC[C@]2(C)[C@@H](NCCCCCCN3C(=O)C=CC3=O)CC[C@@H]12 [U73122, reference compound]",abolished,abolished,–
